The values that follow are results of earlier work, collected in patent US20250367333A1, “LIPID NANOPARTICLE FOR RADIATION THERAPY, MANUFACTURING METHOD, COMBINATION COMPOSITION, AND KIT” (KABUSHIKI KAISHA TOSHIBA, priority 2024, published 2025).

For the series the following is noted: radioactive material.

In the case of `[At]` [astatine], the half-life entry was “approximately 7 hours”.
